From patent US20050124562A1, “Bis-quinazoline compounds for the treatment of bacterial infections” (priority 2003, published 2005)
Values after ≈ are worked out from the molar mass of the structure shown.

Tested on: S. aureus, E. faecalis, S. pyogenes and S. pneumoniae
Test: Broth microdilution MIC (NCCLS), gram-positive strains
Type: cell-based
Settings: not given
Method: Representative bis-quinazolines were tested for antibacterial activity using the […] microdilution method to determine their minimum inhibitory concentrations (MICs). All compounds were tested using standard methods in accordance with NCCLS guidelines (National Committee for Clinical Laboratory Standards. 2003. Methods for dilution antimicrobial susceptibility testing for bacteria that grow aerobically. Approved Standard M-7 A-6, NCCLS, Wayne, Pa.). The bacterial strains used in the susceptibility tests were obtained from the American Type Culture Collection (ATCC) and included resistant phenotypes such as oxacillin-resistant S. aureus (ORSA) and vancomycin-resistant enterococci (VRE). The minimum bactericidal concentrations (MBCs) were determined for selected organisms. The effect of protein binding on the antibacterial activity of representative bis-quinazolines were determined by conducting MIC tests in the presence of human serum.

| Structure (SMILES) | MIC [mg/L] |
| --- | --- |
| COc1ccc2nc(Nc3nc(O)c4cccc(OC)c4n3)nc(C)c2c1 [Example 10, 8-Methoxy-2-(6-methoxy-4-methyl-quinazolin-2-ylamino)-quinazolin-4-ol] | 0.06 to 16 (≈ 0.165 to 44 µM) |
| COc1cc(OC)c2nc(Nc3nc(O)c4cccc(OC)c4n3)nc(C)c2c1 [Example 11, 2-(6,8-Dimethoxy-4-methyl-quinazolin-2-ylamino)-8-methoxy-quinazolin-4-ol] | 0.06 to 16 (≈ 0.153 to 40.7 µM) |
| CCOc1cccc2nc(Nc3nc(C)c4cc(OC)c(OC)cc4n3)nc(O)c12 [Example 13, 2-(6,7-Dimethoxy-4-methyl-quinazolin-2-ylamino)-5-ethoxy-quinazolin-4-ol] | 0.06 to 16 (≈ 0.147 to 39.3 µM) |
| Cc1nc(Nc2nc(O)c3ccccc3n2)nc2cc3c(cc12)OCO3 [Example 15, 2-(8-Methyl-[1,3]dioxolo[4,5-g]quinazolin-6-ylamino)-quinazolin-4-ol] | 0.06 to 16 (≈ 0.173 to 46.1 µM) |
| Cc1nc(Nc2nc(O)c3ccccc3n2)nc2ccc(O)cc12 [Example 16, 2-(4-Hydroxy-quinazolin-2-ylamino)-4-methyl-quinazolin-6-ol] | 0.06 to 16 (≈ 0.188 to 50.1 µM) |
| COc1ccc2nc(Nc3nc(O)c4cccc(C)c4n3)ncc2c1 [Example 20, 2-(6-Methoxy-quinazolin-2-ylamino)-8-methyl-quinazolin-4-ol] | 0.06 to 16 (≈ 0.18 to 48 µM) |
| COc1cccc2c(C)nc(Nc3nc(O)c4cc(C)cc(C)c4n3)nc12 [Example 48, 2-(8-Methoxy-4-methyl-quinazolin-2-ylamino)-6,8-dimethyl-quinazolin-4-ol] | 0.06 to 16 (≈ 0.166 to 44.3 µM) |
| CCc1nc(Nc2nc(O)c3ccccc3n2)nc2ccc(OC)cc12 [Example 49, 2-(4-Ethyl-6-methoxy-quinazolin-2-ylamino)-quinazolin-4-ol] | 0.06 to 16 (≈ 0.173 to 46.1 µM) |
| COc1cccc2c(C)nc(Nc3nc(O)c4cccc(C)c4n3)nc12 [Example 51, 2-(8-Methoxy-4-methyl-quinazolin-2-ylamino)-8-methyl-quinazolin-4-ol] | 0.06 to 16 (≈ 0.173 to 46.1 µM) |
| COc1cc2nc(Nc3nc(O)c4ccccc4n3)nc(C)c2cc1OC [Example 52, 2-(6,7-Dimethoxy-4-methyl-quinazolin-2-ylamino)-quinazolin-4-ol] | 0.06 to 16 (≈ 0.165 to 44 µM) |
| COc1cccc2c(C)nc(Nc3nc(O)c4ccccc4n3)nc12 [Example 58, 2-(8-Methoxy-4-methyl-quinazolin-2-ylamino)-quinazolin-4-ol] | 0.06 to 16 (≈ 0.18 to 48 µM) |
| CCOc1cccc2c(C)nc(Nc3nc(O)c4ccccc4n3)nc12 [Example 59, 2-(8-Ethoxy-4-methyl-quinazolin-2-ylamino)-quinazolin-4-ol] | 0.06 to 16 (≈ 0.173 to 46.1 µM) |
| COc1ccc2nc(Nc3nc(O)c4cc(O)ccc4n3)nc(C)c2c1 [Example 60, 2-(6-Methoxy-4-methyl-quinazolin-2-ylamino)-quinazoline-4,6-diol] | 0.06 to 16 (≈ 0.172 to 45.8 µM) |
| COc1ccc2nc(Nc3nc(O)c4cc(OC)ccc4n3)nc(C)c2c1 [Example 61, 6-Methoxy-2-(6-methoxy-4-methyl-quinazolin-2-ylamino)-quinazolin-4-ol] | 0.06 to 16 (≈ 0.165 to 44 µM) |
| COc1ccc2nc(Nc3nc(O)c4cc(OC)c(OC)cc4n3)nc(C)c2c1 [Example 62, 6,7-Dimethoxy-2-(6-methoxy-4-methyl-quinazolin-2-ylamino)-quinazolin-4-ol] | 0.06 to 16 (≈ 0.153 to 40.7 µM) |
| COc1ccc2nc(Nc3nc(O)c4cc(C)ccc4n3)nc(C)c2c1 [Example 63, 2-(6-Methoxy-4-methyl-quinazolin-2-ylamino)-6-methyl-quinazolin-4-ol] | 0.06 to 16 (≈ 0.173 to 46.1 µM) |
| COc1ccc2nc(Nc3nc(O)c4cccc(C)c4n3)nc(C)c2c1 [Example 65, 2-(6-Methoxy-4-methyl-quinazolin-2-ylamino)-8-methyl-quinazolin-4-ol] | 0.06 to 16 (≈ 0.173 to 46.1 µM) |

Same assay, conditions: range against some strains of S. aureus, E. faecalis, S. pyogenes and S. pneumoniae; read-out: MIC

| Structure (SMILES) | MIC [mg/L] |
| --- | --- |
| COc1ccc2nc(Nc3nc(O)c4cc(N)cc(C)c4n3)nc(C)c2c1.O=C(O)C(F)(F)F [Example 22, 6-Amino-2-(6-methoxy-4-methyl-quinazolin-2-ylamino)-8-methyl-quinazolin-4-ol trifluoroacetate salt] | 0.06 to 16 |
| COc1ccc([N+](=O)[O-])c2c(C)nc(Nc3nc(O)c4ccccc4n3)nc12.O=C(O)C(F)(F)F [Example 26, 2-(8-Methoxy-4-methyl-5-nitro-quinazolin-2-ylamino)-quinazolin-4-ol trifluoroacetate salt] | 0.06 to 16 |
| COc1ccc(OC)c2c(C)nc(Nc3nc(O)c4ccccc4n3)nc12.O=C(O)C(F)(F)F [Example 27, 2-(5,8-Dimethoxy-4-methyl-quinazolin-2-ylamino)-quinazolin-4-ol trifluoroacetate salt] | 0.06 to 16 |
| COc1ccc([N+](=O)[O-])c2c(C)nc(Nc3nc(O)c4cc(C)cc(C)c4n3)nc12.O=C(O)C(F)(F)F [Example 30, 2-(8-Methoxy-4-methyl-5-nitro-quinazolin-2-ylamino)-6,8-dimethyl-quinazolin-4-ol, trifluoroacetate salt] | 0.06 to 16 |
| COc1cc2c(C)nc(Nc3nc(O)c4ccccc4n3)nc2cc1F.O=C(O)C(F)(F)F [Example 32, 2-(7-Fluoro-6-methoxy-4-methyl-quinazolin-2-ylamino)-quinazolin-4-ol trifluoroacetate salt] | 0.06 to 16 |
| CSc1ccc2nc(Nc3nc(O)c4ccccc4n3)nc(C)c2c1.O=C(O)C(F)(F)F [Example 35, 2-(4-Methyl-6-methylsulfanyl-quinazolin-2-ylamino)-quinazolin-4-ol trifluoroacetate salt] | 0.06 to 16 |
| COc1ccc2nc(Nc3nc(O)c4c(OC)cccc4n3)nc(C)c2c1.O=C(O)C(F)(F)F [Example 37, 5-Methoxy-2-(6-methoxy-4-methyl-quinazolin-2-ylamino)-quinazolin-4-ol trifluoroacetate salt] | 0.06 to 16 |
| COc1cc2nc(Nc3nc(O)c4cc(C)cc(C)c4n3)nc(C)c2cc1OC.O=C(O)C(F)(F)F [Example 41, 2-(6,7-Dimethoxy-4-methyl-quinazolin-2-ylamino)-6,8-dimethyl-quinazolin-4-ol trifluoroacetate salt] | 0.06 to 16 |
| COc1ccc(OC)c2c(C)nc(Nc3nc(O)c4cc(C)cc(C)c4n3)nc12.O=C(O)C(F)(F)F [Example 43, 2-(5,8-Dimethoxy-4-methyl-quinazolin-2-ylamino)-6,8-dimethyl-quinazolin-4-ol trifluoroacetate salt] | 0.06 to 16 |
| CC(=O)O.COc1cc2c(C)nc(Nc3nc(O)c4cc(C)cc(C)c4n3)nc2cc1F [Example 44, 2-(7-Fluoro-6-methoxy-4-methyl-quinazolin-2-ylamino)-6,8-dimethyl-quinazolin-4-ol acetate salt] | 0.06 to 16 |
| COc1ccc2nc(Nc3nc(O)c4ccccc4n3)nc(CF)c2c1.O=C(O)C(F)(F)F [Example 45, 2-(4-Fluoromethyl-6-methoxy-quinazolin-2-ylamino)-quinazolin-4-ol trifluoroacetate salt] | 0.06 to 16 |
| COc1cc(OC)c2nc(Nc3nc(O)c4cccc(C)c4n3)nc(C)c2c1.O=C(O)C(F)(F)F [Example 46, 2-(6,8-Dimethoxy-4-methyl-quinazolin-2-ylamino)-8-methyl-quinazolin-4-ol trifluoroacetate salt] | 0.06 to 16 |
| COc1ccc2nc(Nc3nc(O)c4cc(N)ccc4n3)nc(C)c2c1.O=C(O)C(F)(F)F [Example 47, 6-Amino-2-(6-methoxy-4-methyl-quinazolin-2-ylamino)-quinazolin-4-ol trifluoroacetate salt] | 0.06 to 16 |
| COc1cc(OC)c2nc(Nc3nc(O)c4cc([N+](=O)[O-])cc(C)c4n3)nc(C)c2c1.O=C(O)C(F)(F)F [Example 67, 2-(6,8-Dimethoxy-4-methyl-quinazolin-2-ylamino)-8-methyl-6-nitro-quinazolin-4-ol trifluoroacetate salt] | 0.06 to 16 |
| COc1cccc2c(C)nc(Nc3nc(O)c4cc([N+](=O)[O-])cc(C)c4n3)nc12.O=C(O)C(F)(F)F [Example 68, 2-(8-Methoxy-4-methyl-quinazolin-2-ylamino)-8-methyl-6-nitro-quinazolin-4-ol trifluoroacetate salt] | 0.06 to 16 |
| COCCOc1ccc2nc(Nc3nc(O)c4cc([N+](=O)[O-])cc(C)c4n3)nc(C)c2c1.O=C(O)C(F)(F)F [Example 69, 2-[6-(2-Methoxy-ethoxy)-4-methyl-quinazolin-2-ylamino]-8-methyl-6-nitro-quinazolin-4-ol trifluoroacetate salt] | 0.06 to 16 |
| COCCOc1ccc2nc(Nc3nc(O)c4cc(N)cc(C)c4n3)nc(C)c2c1.O=C(O)C(F)(F)F [Example 70, 6-Amino-2-[6-(2-methoxy-ethoxy)-4-methyl-quinazolin-2-ylamino]-8-methyl-quinazolin-4-ol trifluoroacetate salt] | 0.06 to 16 |
| COc1ccc2nc(Nc3nc(O)c4cccc(O)c4n3)nc(C)c2c1.O=C(O)C(F)(F)F [Example 71, 2-(6-Methoxy-4-methyl-quinazolin-2-ylamino)-quinazoline-4,8-diol trifluoroacetate salt] | 0.06 to 16 |
| COc1cccc2c(C)nc(Nc3nc(O)c4cccc(O)c4n3)nc12.O=C(O)C(F)(F)F [Example 72, 2-(8-Methoxy-4-methyl-quinazolin-2-ylamino)-quinazoline-4,8-diol trifluoroacetate salt] | 0.06 to 16 |
| COc1ccc2c(C)nc(Nc3nc(O)c4cc(C)cc(C)c4n3)nc2c1OC.O=C(O)C(F)(F)F [Example 73, 2-(7,8-Dimethoxy-4-methyl-quinazolin-2-ylamino)-6,8-dimethyl-quinazolin-4-ol trifluoroacetate salt] | 0.06 to 16 |
| COc1ccc2c(C)nc(Nc3nc(O)c4ccccc4n3)nc2c1OC.O=C(O)C(F)(F)F [Example 74, 2-(7,8-Dimethoxy-4-methyl-quinazolin-2-ylamino)-quinazolin-4-ol trifluoroacetate salt] | 0.06 to 16 |
